Several values for one entry are separate records, joined by “and”; a condition that tells them apart may be missing. Equal values may be shown once. Read-outs that look alike come from different tables or passages of the source. Each block holds one molecule with its values, some of them ahead of it.
How the values were obtained:
[1] = Octanol-water distribution coefficient at pH 7.4 (Origenis BRAINstorm platform, affinity chromatography); format: physicochemical
Description: (§1) To evaluate the potential drug-like properties of the electronic homologue ORI-TRN-002, we measured the compound’s properties in the Origenis BRAINstorm™ platform. This platform uses affinity chromatography under standard conditions and standard calibrants to measure compound properties with high accuracy and reproducibility. […] It supersedes the solubility and free fraction limitations of the Aeromics/Simcere drug AER-270 [21] (Figure 2). ORI-TRN-002 requires no prodrug approach and serves as an ideal starting point for further optimization.
(§2) The chemical structures of the three AQP4 inhibitors studied and their measured physico-chemical properties (logD at pH 7.4, log10 of molar human serum albumin affinity constant, percent human plasma protein binding, log10 of human alpha acid glycoprotein affinity constant, unbound fraction in liver, and unbound fraction in hepatocytes). TEXT PRINTED IN THE PICTURE: TGN-020: logD: 0.04; logKaHSA: 3.51; hPPB%: 68.20; logKaRSA: 2.72; logKaAGP: 1.18; fu, liver: 1.00; fu, hep: 0.92 | AER-270: logD: 3.31; logKaHSA: 5.46; hPPB%: 99.50; logKaRSA: 5.26; logKaAGP: 6.94; fu, liver: <0.01; fu, hep: <0.01 | ORI-TRN-002: logD: -0.07; logKaHSA: 2.99; hPPB%: 39.20; logKaRSA: 2.89; logKaAGP: 1.88; fu, liver: 1.00; fu, hep: 0.95

human serum albumin = human serum albumin (Homo sapiens, UniProt P02768); assay: Human serum albumin affinity (BRAINstorm affinity chromatography); format: binding
Description: as §1, §2

rat serum albumin = rat serum albumin (Rattus norvegicus, UniProt P02770); assay: Rat serum albumin affinity (BRAINstorm affinity chromatography); format: binding
Description: as §1, §2

[2] = Percentage of binding to human plasma proteins (BRAINstorm); format: in vitro ADME
Description: as §1, §2

[3] = Unbound fraction in liver (BRAINstorm); format: in vitro ADME
Description: as §1, §2

[4] = Unbound fraction in hepatocytes (BRAINstorm); format: in vitro ADME
Description: as §1, §2

human AQP4 = details: cited from earlier work
cerebral edema [5] = details: cited from earlier work
cerebral edema [6] = system: cerebral edema; set-up: method as in doi:10.1097/01.ccm.0000473851.20338.3b, PMID 29635589; details: various traumatic brain injury models; cited from earlier work
AQP4 = system: AQP4; set-up: method as in PMID 32506554, PMID 30934923; details: cited from earlier work
AQP4.M23 = system: AQP4.M23; set-up: method as in PMID 17178220; details: oocytes; cited from earlier work
AQP4-expressing oocytes = assay: Membrane potential of treated AQP4-expressing oocytes (toxicity check); format: cell-based, Xenopus laevis
Description: Following the introduction of an abrupt hyposmotic challenge (−100 mOsm), we determined the osmotic water permeability of the oocytes during the continuous recording of the oocyte volume with a high-resolution volume recording system. This experimental setup allows for the osmotic gradient to be introduced at a faster rate than the rate of cell volume change and sufficiently fast data acquisition to obtain several data points at the initial linear part of the cell volume change, which is required to obtain the osmotic water permeability of an AQP-expressing oocyte. […] The oocytes were exposed to the novel drugs (or control solution) for 60 min. prior to the determination of water permeability. The established AQP4 blockers, TGN-020 and AER-270, served as positive controls.

rat AQP4 = rat AQP4 (Rattus norvegicus, UniProt P47863); assay: Osmotic water permeability of rat AQP4-expressing Xenopus laevis oocytes (high-resolution volume recording, hyposmotic challenge); details: IC50 for rAQP4 (AQP4-mediated water permeability), rat AQP4 in Xenopus laevis oocytes, different concentrations, n = 6, mean ± SEM
Description: To resolve ORI-TRN-002’s inhibitory effect on AQP4, rat AQP4 (rAQP) was heterologously expressed in Xenopus laevis oocytes, and the AQP4-mediated water permeability was quantified. Following the introduction of an abrupt hyposmotic challenge (−100 mOsm), we determined the osmotic water permeability of the oocytes during the continuous recording of the oocyte volume with a high-resolution volume recording system. This experimental setup allows for the osmotic gradient to be introduced at a faster rate than the rate of cell volume change and sufficiently fast data acquisition to obtain several data points at the initial linear part of the cell volume change, which is required to obtain the osmotic water permeability of an AQP-expressing oocyte. The native oocyte membrane has a low inherent water permeability, thus the uninjected oocytes display a negligible background (see Figure 3A for summarized data on osmotic water permeabilities; compare 0.21 ± 0.13 × 10^−3 cm s^−1, n = 9, for uninjected oocytes to 3.80 ± 0.33 × 10^−3 cm s^−1, n = 11, for AQP4-expressing oocytes; representative volume traces shown as insets)). The oocytes were exposed to the novel drugs (or control solution) for 60 min. prior to the determination of water permeability. The established AQP4 blockers, TGN-020 and AER-270, served as positive controls. […]

[7] = read-out: logKaHSA (log10 of molar human serum albumin affinity constant) (converted)
[8] = read-out: logKaRSA (rat serum albumin affinity) (converted)
[9] = human plasma proteins, read-out: hPPB% (percent human plasma protein binding) (converted)
[10] = liver, read-out: fu, liver (unbound fraction in liver)
[11] = read-out: fu, hep (unbound fraction in hepatocytes)

Chain of rat serum albumin (P02770 25-608): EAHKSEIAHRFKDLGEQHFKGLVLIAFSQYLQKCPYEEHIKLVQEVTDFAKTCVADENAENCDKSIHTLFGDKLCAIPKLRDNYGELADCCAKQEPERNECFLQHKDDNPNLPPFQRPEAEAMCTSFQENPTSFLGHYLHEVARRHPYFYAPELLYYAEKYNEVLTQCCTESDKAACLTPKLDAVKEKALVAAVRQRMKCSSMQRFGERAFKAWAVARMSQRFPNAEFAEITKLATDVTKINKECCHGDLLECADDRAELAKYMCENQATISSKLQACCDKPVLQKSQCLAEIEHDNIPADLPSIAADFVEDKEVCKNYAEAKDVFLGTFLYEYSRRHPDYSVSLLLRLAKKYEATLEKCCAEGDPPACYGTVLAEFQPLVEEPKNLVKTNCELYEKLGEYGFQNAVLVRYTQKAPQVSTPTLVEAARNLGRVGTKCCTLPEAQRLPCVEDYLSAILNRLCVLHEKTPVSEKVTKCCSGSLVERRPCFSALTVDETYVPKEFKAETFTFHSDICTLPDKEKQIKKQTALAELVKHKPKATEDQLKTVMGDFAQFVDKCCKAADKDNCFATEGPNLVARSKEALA
Chain of human serum albumin (P02768 25-609): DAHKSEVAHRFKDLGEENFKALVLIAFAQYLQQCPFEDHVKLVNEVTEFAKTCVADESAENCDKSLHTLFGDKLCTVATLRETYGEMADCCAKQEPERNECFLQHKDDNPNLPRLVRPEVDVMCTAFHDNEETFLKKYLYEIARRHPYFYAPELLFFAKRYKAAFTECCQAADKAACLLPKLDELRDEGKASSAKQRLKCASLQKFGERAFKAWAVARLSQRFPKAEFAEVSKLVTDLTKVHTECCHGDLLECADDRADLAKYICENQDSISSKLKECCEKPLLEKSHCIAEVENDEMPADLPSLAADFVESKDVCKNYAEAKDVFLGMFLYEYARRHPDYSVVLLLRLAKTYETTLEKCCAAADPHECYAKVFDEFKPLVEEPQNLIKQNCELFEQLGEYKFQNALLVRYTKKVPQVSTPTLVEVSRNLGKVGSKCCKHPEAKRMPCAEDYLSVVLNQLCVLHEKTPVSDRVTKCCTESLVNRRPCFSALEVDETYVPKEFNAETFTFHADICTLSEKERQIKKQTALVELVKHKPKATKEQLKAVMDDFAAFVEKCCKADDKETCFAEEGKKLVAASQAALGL
Chain of rat AQP4 (P47863 23-323): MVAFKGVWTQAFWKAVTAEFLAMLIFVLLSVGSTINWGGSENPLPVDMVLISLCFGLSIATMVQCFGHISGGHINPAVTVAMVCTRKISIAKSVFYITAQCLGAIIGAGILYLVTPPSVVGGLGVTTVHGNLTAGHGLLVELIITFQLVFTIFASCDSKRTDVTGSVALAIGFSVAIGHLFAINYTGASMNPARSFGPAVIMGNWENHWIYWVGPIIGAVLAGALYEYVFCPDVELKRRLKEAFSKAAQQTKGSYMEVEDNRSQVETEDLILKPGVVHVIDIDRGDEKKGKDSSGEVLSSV

SMILES: O=C(Nc1cc(C(F)(F)F)cc(C(F)(F)F)c1)c1cc(Cl)ccc1O [AER-270, N-[3,5-bis (trifluoromethyl)phenyl]-5-chloro-2-hydroxybenzamide]
chromatographic logD [1]: 3.31
Kd (human serum albumin): 3.47 µM
Kd (rat serum albumin): 5.5 µM
fraction unbound ([2]; plasma): 0.005
fraction unbound [3]: < 0.01
fraction unbound [4]: < 0.01
maximal inhibition of human AQP4 (human AQP4): 20%

SMILES: O=C(Nc1cc(C(F)(F)F)cc(C(F)(F)F)c1)c1cc(Cl)ccc1OP(=O)(O)O [AER-271, 2-([3,5-Bis(trifluoromethyl)phenyl]carbamoyl)-4-chlorophenyl dihydrogen phosphate]
AQP4-mediated cerebral edema (cerebral edema [5]; rodent model of transient MCAO): selectively and effectively reduced
neurological outcome (cerebral edema [5]; rodent model of transient MCAO): improved
swelling in two models of CNS injury complicated by cerebral edema (cerebral edema [5]; water intoxication and ischemic stroke modeled by MCAO): reduce swelling
reduction of cerebral edema (cerebral edema [6]): ineffective

SMILES: CCCCNc1cc(C(=O)Nc2ccncc2)cc(S(N)(=O)=O)c1Oc1ccccc1 [AqB013]
block of AQP4-mediated water permeability (AQP4): not be effective blockers

SMILES: CCOc1ccc2nc(S(N)(=O)=O)sc2c1 [Ethoxyzolamide]
inhibition of AQP4.M23 (AQP4.M23): inhibit

chromatographic logD ([1]; octanol/water): -0.07
Kd (human serum albumin; [7]): 1020 µM
Kd (rat serum albumin; [8]): 1290 µM
fraction unbound [2, 9]: 0.608
fraction unbound [3, 10]: 1
fraction unbound [4, 11]: 0.95
IC50 (rat AQP4): ~3 µM and 2.9 µM
SMILES: O=c1[nH]c(-c2cccnc2)nc2[nH]ncc12 [ORI-TRN-002, 6-(pyridin-3-yl)-1H-pyrazolo[3,4-d]pyrimidin-4(5H)-one]
membrane potential of treated oocytes (AQP4-expressing oocytes; 20 μM acute application, 10 min, non-treated -25.6 ± 0.50 mV, n = 9): −26.9 ± 0.61 mV
membrane potential of treated oocytes (AQP4-expressing oocytes; 20 µM, 60 min, non-treated −26.2 ± 0.62 mV, n = 12): −24.4 ± 0.74 mV

chromatographic logD ([1]; octanol/water): 0.04
Kd (human serum albumin; [7]): 309 µM
Kd (rat serum albumin; [8]): 1910 µM
fraction unbound [2, 9]: 0.318
fraction unbound [3, 10]: 1
fraction unbound [4, 11]: 0.92
SMILES: O=C(Nc1nncs1)c1cccnc1 [TGN-020, 2-(nicotinamide)-1,3,4-thiadiazole]

SMILES: CC(=O)Nc1nnc(S(N)(=O)=O)s1 [acetazolamide]
block of AQP4-mediated water permeability (AQP4): not be effective blockers

SMILES: CCCCNc1cc(C(=O)O)cc(S(N)(=O)=O)c1Oc1ccccc1 [bumetanide]
block of AQP4-mediated water permeability (AQP4): not be effective blockers

SMILES: CC[N+](CC)(CC)CC [tetraethylammonium (TEA), tetraethylammonium]
block of AQP4-mediated water permeability (AQP4): not be effective blockers

— paper PMC10815436, “Toward New AQP4 Inhibitors: ORI-TRN-002” (International Journal of Molecular Sciences, 2024)
